Laboratory results as given in paper PMC12095047, “Transport of phenoxyacetic acid herbicides by PIN-FORMED auxin transporters” (Nature Plants, 2025).
Several values for one entry are separate records, joined by “and”; a condition that tells them apart may be missing. Equal entries are not always repeated.

Tests used:
[1] = cited from earlier work
[2] = test system: A. thaliana stem segments of wild type; experiment: Arabidopsis stem transport assay, Col-0 wild type; format: in vivo, Arabidopsis thaliana; details: for CPM: WT;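 for CPM: Segments numbered apical to basal with Segment 1 nearest the apical end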
Description: (§1) Arabidopsis stem transport assays were carried out as described. Briefly, 2 cm stem sections were cut above the rosette of 5-week-old plants and placed in inverted orientation into auxin transport buffer containing 500 pM IAA, 1% (wt/vol) sucrose, 5 mM 2-(N-morpholino)ethanesulfonic acid, pH 5.5 with or without 100 μM NPA. After 2 h the stems were transferred into auxin transport buffer containing 417 nM [^3H]-IAA or [^3H]-2,4-D as a substrate in the absence and presence of NPA. After 2 h, 5 mm segments were dissected, and the substrate was quantified using a liquid scintillation counter.

[3] = target: T1, PIN8 (Arabidopsis thaliana, UniProt Q9LFP6); parameters: method as in PMID 35768502; details: read-out: IAA binding affinity KD, previously described; cited from earlier work
T1 construct: made in house
T1 sequence (Q9LFP6 1-367): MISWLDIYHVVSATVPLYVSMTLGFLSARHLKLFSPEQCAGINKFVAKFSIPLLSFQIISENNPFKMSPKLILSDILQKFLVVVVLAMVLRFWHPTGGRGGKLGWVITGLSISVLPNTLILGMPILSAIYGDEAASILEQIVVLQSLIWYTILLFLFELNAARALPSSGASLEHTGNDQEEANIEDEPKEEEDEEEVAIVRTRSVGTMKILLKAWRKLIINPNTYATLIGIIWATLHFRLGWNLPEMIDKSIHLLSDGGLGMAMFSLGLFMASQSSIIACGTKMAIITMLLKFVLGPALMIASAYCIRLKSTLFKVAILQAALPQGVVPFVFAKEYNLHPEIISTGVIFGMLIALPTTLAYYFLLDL

[4] = target: T1, PIN8; experiment: Xenopus oocyte efflux assay, PIN8; format: cell-based; details: for Rel. IAA transport rate: [3H]-IAA export by PIN8 from oocytes; for Rel. IAA transport rate / Rel. 2,4-D transport rate: individual experiments; for Rel. 2,4-D transport rate: [3H]-2,4-D export by PIN8 from oocytes
Description: (§2) Oocyte efflux experiments were carried out as described[12],[20],[26]. Briefly, oocytes were injected with 150 ng transporter complementary RNA without or with 75 ng kinase cRNA. [^3H]-IAA (25 Ci mmol^−1) and [^3H]-4-CPA (37.7 Ci mmol^−1) was purchased from RC Tritec. [^3H]-2,4-D (25 Ci mmol^−1) was purchased from ARC. Oocytes were injected with substrate to reach an internal concentration of 1 µM, corresponding to 100%. Residual radioactivity was determined for each individual oocyte by liquid scintillation counting after the time points indicated and are expressed relative to the initial 100%. Each time point represents the mean and s.e. of ten oocytes. To calculate the relative transport rate in percentage per minute, linear regression was performed. Each data point in Fig. 1b,c and Extended Data Fig. 2b,e represents the transport rate of one biological replicate using oocytes collected from different Xenopus females.

[5] = target: T2, A. thaliana PIN3 (Arabidopsis thaliana, UniProt Q9S7Z8); experiment: Xenopus oocyte efflux assay, PIN3 with or without PID kinase; format: cell-based; details: for Rel. 2,4-D transport rate (% exported/min): replicates; for Rel. 2,4-D transport rate: PIN3 oocytes, individual experiments
T2 construct: expressed in transfected cells; host or cells: Xenopus oocytes (cRNA injection)
T2 sequence (Q9S7Z8 1-640): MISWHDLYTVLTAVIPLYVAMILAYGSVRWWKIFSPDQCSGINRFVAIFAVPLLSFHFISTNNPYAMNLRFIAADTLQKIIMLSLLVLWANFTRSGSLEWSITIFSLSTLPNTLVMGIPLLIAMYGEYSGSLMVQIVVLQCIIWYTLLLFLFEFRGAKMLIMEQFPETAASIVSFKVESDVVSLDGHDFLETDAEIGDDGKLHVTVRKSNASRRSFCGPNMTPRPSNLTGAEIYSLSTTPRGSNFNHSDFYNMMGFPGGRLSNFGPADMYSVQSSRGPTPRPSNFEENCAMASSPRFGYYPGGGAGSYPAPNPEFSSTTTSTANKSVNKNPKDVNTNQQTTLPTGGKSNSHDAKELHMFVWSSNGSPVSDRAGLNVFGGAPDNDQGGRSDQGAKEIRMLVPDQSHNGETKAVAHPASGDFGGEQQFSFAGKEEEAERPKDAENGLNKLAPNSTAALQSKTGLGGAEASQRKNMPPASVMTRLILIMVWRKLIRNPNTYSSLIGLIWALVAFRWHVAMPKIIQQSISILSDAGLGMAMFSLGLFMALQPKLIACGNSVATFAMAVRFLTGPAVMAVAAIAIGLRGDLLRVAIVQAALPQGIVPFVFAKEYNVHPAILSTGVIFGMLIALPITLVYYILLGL
Description: as §2

[6] = test system: A. thaliana stem segments of pin1 mutants; experiment: Arabidopsis stem transport assay, pin1 mutant; format: in vivo, Arabidopsis thaliana
Description: as §1

O=C(O)Cc1c[nH]c2ccccc12 [IAA, indole-3-acetic acid]
acid dissociation constant pKa [1]: 4.7
CPM ([2]; sheet EDF2H, + NPA, Segment 1, single stems): 342 CPM and 190 CPM and 344 CPM and 366 CPM and 333 CPM
CPM ([2]; sheet EDF2H, + NPA, Segment 2, single stems): 98 CPM and 93 CPM and 124 CPM and 114 CPM
CPM ([2]; sheet EDF2H, + NPA, Segment 3, single stems): 125 CPM and 94 CPM and 137 CPM and 146 CPM and 104 CPM
CPM ([2]; sheet EDF2H, - NPA, Segment 3, single stems): 181 CPM and 109 CPM and 111 CPM and 125 CPM and 156 CPM
Kd [3]: 40 ± 15 µM
Rel. IAA transport rate ([4]; NPA + (10 μM)): 0.4862 % exported/min and 0.4056 % exported/min and 0.4406 % exported/min
Rel. IAA transport rate ([4]; NPA -): 2.069 % exported/min and 2.225 % exported/min and 1.917 % exported/min
Rel. IAA transport rate (% exported/min) ([5]; PID +, NPA -, single experiments): 5.59 % exported/min and 5.28 % exported/min and 4.145 % exported/min
CPM ([6]; sheet EDF2H, pin1, + NPA, Segment 2, single stems): 103 CPM and 109 CPM and 91 CPM and 134 CPM and 78 CPM
CPM ([6]; sheet EDF2H, pin1, + NPA, Segment 3, single stems): 70 CPM and 80 CPM and 98 CPM and 135 CPM and 76 CPM
CPM ([6]; sheet EDF2H, pin1, - NPA, Segment 3, single stems): 119 CPM and 97 CPM and 69 CPM and 107 CPM and 82 CPM

O=C(O)COc1ccc(Cl)cc1Cl [2,4-D, 2,4-dichlorophenoxyacetic acid]
acid dissociation constant pKa [1]: 2.73
CPM ([2]; sheet EDF2I, + NPA, Segment 2, single stems): 33 CPM and 25 CPM and 26 CPM and 39 CPM
CPM ([2]; sheet EDF2I, + NPA, Segment 3, single stems): 20 CPM and 21 CPM and 33 CPM and 30 CPM
CPM ([2]; sheet EDF2I, - NPA, Segment 1, single stems): 76 CPM and 115 CPM and 77 CPM and 107 CPM
CPM ([2]; sheet EDF2I, - NPA, Segment 2, single stems): 35 CPM and 37 CPM and 34 CPM and 29 CPM and 30 CPM
CPM ([2]; sheet EDF2I, - NPA, Segment 3, single stems): 29 CPM and 37 CPM and 35 CPM and 26 CPM and 28 CPM
transport in stem segments, lower than IAA transport ([2]; wild-type plants): about 20 fold
transport rate of export from oocytes relative to IAA ([4]; PIN8, NPA-sensitive export): about half of that determined for IAA
Rel. 2,4-D transport rate ([4]; NPA + (10 μM)): 0.7325 % exported/min and 0.3331 % exported/min and 0.3715 % exported/min and 0.009798 % exported/min
Rel. 2,4-D transport rate ([4]; NPA -): 1.122 % exported/min and 0.7012 % exported/min and 0.7258 % exported/min and 0.8004 % exported/min
Rel. 2,4-D transport rate (% exported/min) ([5]; PID +): 2.469 % exported/min and 1.491 % exported/min and 1.857 % exported/min
Rel. 2,4-D transport rate (% exported/min) ([5]; PID -): 1.104 % exported/min and -0.5881 % exported/min and -1.06 % exported/min
export rate relative to the IAA transport rate ([5]; PIN3 activated by PID kinase, NPA-sensitive): about half of the IAA transport rate
Rel. 2,4-D transport rate ([5]; PID +, NPA + (10 μM)): 0.306 % exported/min and 0.1671 % exported/min and -0.318 % exported/min
Rel. 2,4-D transport rate ([5]; PID +, NPA -): 2.085 % exported/min and 2.202 % exported/min and 1.56 % exported/min
Rel. 2,4-D transport rate ([5]; PID -, NPA + (10 μM)): 0.4736 % exported/min and -0.2953 % exported/min and -0.2713 % exported/min
Rel. 2,4-D transport rate ([5]; PID -, NPA -): -0.1695 % exported/min and 0.4151 % exported/min and -0.6296 % exported/min
transport in stem segments ([6]; pin1 mutants): completely abolished
CPM ([6]; sheet EDF2I, pin1, + NPA, Segment 1, single stems): 52 CPM and 51 CPM and 42 CPM and 38 CPM
CPM ([6]; sheet EDF2I, pin1, + NPA, Segment 2, single stems): 52 CPM and 31 CPM and 27 CPM and 33 CPM
CPM ([6]; sheet EDF2I, pin1, - NPA, Segment 2, single stems): 18 CPM and 32 CPM and 22 CPM and 34 CPM and 25 CPM
